Assay results as given in patent publication US11020358B2, “Method for the anti-senescence of and/or rejuvenating stem cells” (GWO XI STEM CELL APPLIED TECHNOLOGY CO., LTD., priority 2014, dated 2021).

Assays:
Format in all cases: cell-based, human
[1] = tested on: ADSCs; assay: SA-β-gal activity assay in ADSCs
Experimental: (§1) Four portions of equal volume of the above culture medium containing the sub-cultured ADSCs were separately handled by adding thereinto H2O2 (purchased from Sigma-Aldrich) at a final concentration of 100 μM and reacting for 2 hours to induce senescence of the ADSCs, replacing the culture medium with a fresh culture medium, adding thereinto TC (trans-cinnamaldehyde, purchased from Sigma-Aldrich) at a final concentration of 0, 2, 4 or 6 μM and reacting for 6 hours, so as to obtain “H2O2 group (i.e., treated with H2O2 for 2 hours, but not treated with TC),” “H2O2+TC2 group (i.e., treated with H2O2 for 2 hours and then treated with 2 μM of TC for 6 hours),” “H2O2+TC4 group (i.e., treated with H2O2 for 2 hours and then treated with 4 μM of TC for 6 hours),” and “H2O2+TC6 group (i.e., treated with H2O2 for 2 hours and then treated with 6 μM of TC for 6 hours)” ADSCs.
Four portions of equal volume of the above culture medium containing the sub-cultured ADSCs were handled by adding thereinto TC at final concentrations of 0, 2, 4 and 6 μM respectively, and reacting for 6 hours to obtain “untreated group (i.e., without any treatment),” “TC2 group (i.e., treated only with 2 μM of TC),” “TC4 group (i.e., treated only with 4 μM of TC)” and “TC6 group (i.e., treated only with 6 μM of TC)” ADSCs.
It has been known that senescent cells in acidic environment (e.g., pH 6.0) show the activity of SA-β-gal. Therefore, the senescence level of cells can be reflected by measuring the expression level of SA-β-gal in the cells.
The ADSCs in each sample of the group obtained from Example 1 (1) were washed with PBS twice, fixed with 3% formaldehyde and washed with PBS once. […]
The staining solution was removed. […] The cells were observed and photographed under a microscope with 10-fold magnification, and the percentage of SA-β-gal activity-positive cells was calculated.

[2] = tested on: SIRT1 gene; assay: Quantitative RT-PCR of SIRT1 gene in hBMMSCs
Experimental: Three portions of equal volume of the above culture medium containing the sub-cultured hBMMSCs were provided. The first and second portions were handled by adding thereinto H2O2 at a final concentration of 100 μM, reacting for 2 hours to induce senescence of the hBMMSCs, replacing the culture medium with a fresh culture medium, adding thereinto TC at final concentrations of 0 and 6 μM respectively, and reacting for 6 hours to obtain “H2O2 group (i.e., treated with H2O2 for 2 hours, but not treated with TC)” and “H2O2+TC6 group (i.e., treated with H2O2 for 2 hours and then treated with 6 μM of TC for 6 hours) hBMMSCs. The third portion without any treatment was referred to as “untreated group” hBMMSCs. […]
Each of the cDNA of ADSCs of different groups from Experiment (3-1) was handled as follows. […] The mixture was then placed in a real-time quantitative PCR machine (ABI prism 7700 sequence detection system) to perform a reaction for quantifying the gene expression levels. […]
The steps as shown in Experiment (3-2) were repeated, but the cDNA was substituted with the cDNA of the BMMSCs or WJSCs from Experiment (3-1) to conduct quantitative RT-PCR.

[3] = tested on: ADSCs; assay: Semiquantitative RT-PCR of senescence, cell cycle and pluripotency genes in ADSCs
Experimental: as §1
The total cellular RNA of the ADSCs, BMMSCs and WJSCs in each sample of the group obtained from Example 1 (1) were extracted with an RNeasy Mini kit (purchased from Qiagen), and then reverse transcribed into cDNA by a reverse transcription kit (RT Pre Mix, purchased from iNtRON Biotechnology).
Each of the cDNA of the ADSCs of “untreated group,” “H2O2 group” and “H2O2+TC6 group” from Experiment (3-1) was handled as follows. […] The mixture was then placed in a revers transcription polymerase chain reaction (RT-PCR) machine. The RT-PCR reaction conditions were set as follows: i) 94° C. for 30 seconds, 55° C. for 30 seconds, and […] for 60 seconds, repeated for 30 cycles; ii) 72° C. for 10 minutes; and iii) cooling to 4° C. to stop the reaction. The RT-PCR product was analyzed by 2% agarose gel electrophoresis at a voltage of 100 volts for 30 minutes. Then, the gel was stained with ethidium bromide (EtBr) for 10 minutes, and photographed by a gel image documentation system (DOC PRINT DP-001FDC, VilberLourmat France).

[4] = tested on: ADSCs; assay: Flow cytometry of surface antigens of ADSCs; conditions: compared to untreated group
Experimental: as §1
Four portions of equal volume of the above culture medium containing the sub-cultured ADSCs were handled by adding thereinto TC at final concentrations of 0, 2, 4 and 6 μM respectively, and reacting for 6 hours to obtain “untreated group (i.e., without any treatment),” “TC2 group (i.e., treated only with 2 μM of TC),” “TC4 group (i.e., treated only with 4 μM of TC)” and “TC6 group (i.e., treated only with 6 μM of TC)” ADSCs. […]

[5] = H2O2 group ADSCs compared to untreated group
[6] = H2O2+TC6 group ADSCs compared to H2O2 group

Structure (SMILES): OO [H2O2, reference compound]
- number of the SA-β-gal activity-positive cells ([1]; ADSCs, 100 μM H2O2 2 h, compared to untreated group): significantly increased
- expression level of SIRT1 gene in hBMMSCs ([2]; H2O2 group compared to untreated group): significantly reduced
- expression level of the SIRT1 gene (semiquantitative RT-PCR) [3, 5]: significantly decreased
- expression level of the p21 gene (semiquantitative RT-PCR) [3, 5]: significantly increased
- expression level of the p53 gene (semiquantitative RT-PCR) [3, 5]: significantly increased
- expression phenotypes of the surface antigens ([4]; 100 μM H2O2 2 h (H2O2 group)): not significantly changed

Structure (SMILES): O=C/C=C/c1ccccc1 [TC, trans-cinnamaldehyde]
- number of the SA-β-gal activity-positive cells ([1]; H2O2-senescent ADSCs, 2, 4 and 6 μM TC 6 h, compared to H2O2 group): significantly reduced
- number of the SA-β-gal activity-positive cells ([1]; non-senescent ADSCs, 2, 4 and 6 μM TC 6 h, compared to untreated group): significantly reduced along with the increment in the concentration of TC
- expression level of SIRT1 gene in hBMMSCs ([2]; H2O2+TC6 group compared to H2O2 group): significantly increased
- expression level of the NANOG gene (semiquantitative RT-PCR) [3, 6]: did not show significant difference
- expression level of the OCT4 gene (semiquantitative RT-PCR) [3, 6]: did not show significant difference
- expression level of the SIRT1 gene (semiquantitative RT-PCR) [3, 6]: significantly increased
- expression level of the p21 gene (semiquantitative RT-PCR) [3, 6]: significantly decreased
- expression level of the p53 gene (semiquantitative RT-PCR) [3, 6]: significantly decreased
- expression phenotypes of the surface antigens ([4]; 100 μM H2O2 2 h then 6 μM TC 6 h (H2O2+TC6 group)): not significantly changed
